Experimental data taken from patent publication US8946280B2, “Plant growth regulating compounds” (Syngenta Participations AG, priority 2010, dated 2015).

Tested on: Orobanche cumana Wallr. seeds (race F; seed lots IN146 and IN153)
Experiment: Germination of preconditioned Orobanche cumana seeds on glass fiber filter paper in petri dishes
Format: in vivo
Conditions: mean, N = 5 × 100 seeds, re-transformed data; for Germination (%): seed lot IN146 raceF, examined 10 days later
Description: The effect of compounds of formula (I) on germination of Orobanche cumana Wallr. seeds was evaluated on glass fiber filter paper (GFFP) in petri dishes. Seeds were preconditioned at moisture and suitable temperature to become responsive to the specific chemical germination stimulants.
Test compounds were dissolved in DMSO (10 000 mg 1^−1) and stored at room temperature in a desiccators with desiccants. The stock solutions were dissolved with deionised water to the appropriate final test concentration.
Seeds of O. cumana race ‘F’ were collected from sunflower fields in Manzanilla (Seville, Spain) in 2006 (seed lot IN146) and 2008 (seed lot IN153) and stored at room temperature. To separate seeds from heavy organic debris, a modified sucrose floatation technique as described by Hartman & Tanimonure (Plant Disease (1991), 75, p. 494) was applied. Seeds were filled into a separation funnel and stirred in water. When seeds floated to the surface, the water fraction containing heavy debris was discarded. Seeds were re-suspended in 2.5M sucrose solution (specific gravity of 1.20) and heavy debris was allowed to settle down for 60 min. After removing debris, seeds were disinfected in 1% sodium hypochlorite solution and 0.025% (v/v) Tween 20 for 2 min. The seeds were decanted onto two layers of cheesecloth, rinsed with sterile deionised water and re-suspended in sterile deionised water. Two ml of the seed suspension containing approximately 150-400 seeds were spread evenly on two layers of sterile glass fiber filter paper disc ([…]) in Petri dishes (Ø9 cm). After wetting the discs with 3 ml sterile deionised water, petri dishes were sealed with parafilm. Seeds were incubated for 10 days at 20° C. in the dark for seed conditioning. The upper disc with conditioned seeds was briefly dried, transferred to a petri dish lined with a dry GFFP disc, and wetted with 6 ml of the appropriate test solution. The compounds of formula (I) were tested at concentrations of 0.001, 0.01, and 0.1 mg 1^−1. The strigolactone analogue GR24 (commercially available as a mixture of isomers) was included as positive control and 0.001% DMSO as negative control. All treatments were tested in five replicates. Seeds were re-incubated at 20° C. in the dark and examined for germination 10 days later. The radicles of germinated seeds were stained for 5 min with blue ink (MIGROS, Switzerland) in 5% acetic acid according to Long et al. (Seed Science Research (2008), 18, p. 125). After staining, seeds were scanned using a flatbed scanner with an optical resolution of 1200 dpi (PULSTEK, OpticPro ST28) or photographed using a camera stand mounted with a digital SLR camera (Canon EOS 5D). Germination of 100 seeds per replicate was evaluated on digital images. Seeds were considered germinated when the radicle protruded from the seed coat. SAS statistical software package version 9.1 was used for analysis of variance (GLM procedure) and multiple comparisons of treatment means (Sidak t-test) based on arcsine transformed percentage germination data.

[1] = 0.001 mg l^−1, lot IN146, raceF, Table 4
[2] = 0.01 mg l^−1, lot IN146, raceF, Table 4
[3] = 0.1 mg l^−1, lot IN146, raceF, Table 4
[4] = Table 5, seed lot IN146, race F, 0.001 mg l^−1
[5] = Table 5, seed lot IN146, race F, 0.01 mg l^−1
[6] = Table 5, seed lot IN146, race F, 0.1 mg l^−1
[7] = Table 8, seed lot IN153, race F, 0.001 mg l^−1
[8] = Table 8, seed lot IN153, race F, 0.01 mg l^−1
[9] = Table 8, seed lot IN153, race F, 0.1 mg l^−1
[10] = Table 7, seed lot IN153, race F, 0.001 mg l^−1
[11] = Table 7, seed lot IN153, race F, 0.01 mg l^−1
[12] = Table 7, seed lot IN153, race F, 0.1 mg l^−1
[13] = Table 6, seed lot IN146, race F, 0.001 mg l^−1
[14] = Table 6, seed lot IN146, race F, 0.01 mg l^−1
[15] = Table 6, seed lot IN146, race F, 0.1 mg l^−1

CC1=CC(OC=C2C(=O)NC3c4c(C#N)cccc4CC23)OC1=O (mixture of isomers) [A12*]
Germination % at concentration of 0.001 mg l^−1 [1]: 0 e % | Germination % at concentration of 0.01 mg l^−1 [2]: 4.2 e % | Germination % at concentration of 0.1 mg l^−1 [3]: 32 bcde %

CC1=CC(OC=C2C(=O)N(C(=O)OC(C)(C)C)C3c4ccccc4CC23)OC1=O (mixture of isomers) [A15*]
Germination % at concentration of 0.001 mg l^−1 [4]: 0 e % | Germination % at concentration of 0.01 mg l^−1 [5]: 12.4 de % | Germination % at concentration of 0.1 mg l^−1 [6]: 25 d %

CC1=CC(OC=C2C(=O)N(c3ccc(C#N)cn3)C3c4ccccc4CC23)OC1=O (mixture of isomers) [A16*]
Germination % at concentration of 0.001 mg l^−1 [7]: 7.8 fg % | Germination % at concentration of 0.01 mg l^−1 [8]: 60.6 cde % | Germination % at concentration of 0.1 mg l^−1 [9]: 88.2 abc %

CC1=CC(OC=C2C(=O)N(c3ccc(C(F)(F)F)cc3)C3c4ccccc4CC23)OC1=O (mixture of isomers) [A19*]
Germination % at concentration of 0.001 mg l^−1 [7]: 71.5 abcde % | Germination % at concentration of 0.01 mg l^−1 [8]: 92.2 abc % | Germination % at concentration of 0.1 mg l^−1 [9]: 96.4 a %

CC(=O)OC1c2ccccc2C2C1C(=COC1C=C(C)C(=O)O1)C(=O)N2C(=O)OC(C)(C)C (mixture of isomers) [A24*]
Germination % at concentration of 0.001 mg l^−1 [7]: 44.8 def % | Germination % at concentration of 0.01 mg l^−1 [8]: 86.4 abcd % | Germination % at concentration of 0.1 mg l^−1 [9]: 96.8 a %

CC1=CC(OC=C2C(=O)N(C(=O)OC(C)(C)C)C3c4ccccc4C(F)C23)OC1=O (mixture of isomers) [A25*]
Germination % at concentration of 0.001 mg l^−1 [10]: 1.2 c % | Germination % at concentration of 0.01 mg l^−1 [11]: 14.3 c % | Germination % at concentration of 0.1 mg l^−1 [12]: 86.3 ab %

CC1=CC(OC=C2C(=O)N(CC#N)C3c4ccccc4CC23)OC1=O (mixture of isomers) [A28*]
Germination % at concentration of 0.001 mg l^−1 [7]: 42.4 ef % | Germination % at concentration of 0.01 mg l^−1 [8]: 89.2 abc % | Germination % at concentration of 0.1 mg l^−1 [9]: 96.3 ab %

C=CCN1C(=O)C(=COC2C=C(C)C(=O)O2)C2Cc3ccccc3C21 (mixture of isomers) [A29*]
Germination % at concentration of 0.001 mg l^−1 [7]: 90.3 abc % | Germination % at concentration of 0.01 mg l^−1 [8]: 94.5 abc % | Germination % at concentration of 0.1 mg l^−1 [9]: 94.0 abc %

CC1=CC(O/C=C2/C(=O)NC3c4ccccc4C[C@H]23)OC1=O (stereo in doubt) [Compound P1, (3aR*,8bS*,5′R*)-3-[1-(4-Methyl-5-oxo-2,5-dihydro-furan-2-yloxy)-meth-(E)-ylidene]-3,3a,4,8b-tetrahydro-1H-indeno[1,2-b]pyrrol-2-one]
Germination (%) (0.001 mg l^−1): 70.5% | Germination (%) (0.01 mg l^−1): 83.7% | Germination (%) (0.1 mg l^−1): 83.1%

CC1=CC(O/C=C2/C(=O)N(Cc3ccc(F)cc3)C3c4ccccc4CC23)OC1=O (stereo not drawn) [A27*, (3E)-1-[(4-fluorophenyl)methyl]-3-[(4-methyl-5-oxo-2H-furan-2-yl)oxymethylene]-4,8b-dihydro-3aH-indeno[1,2-b]pyrrol-2-one]
Germination % at concentration of 0.001 mg l^−1 [7]: 7.7 fg % | Germination % at concentration of 0.01 mg l^−1 [8]: 63.3 abcde % | Germination % at concentration of 0.1 mg l^−1 [9]: 80.1 abcde %

CC1=CC(OC=C2C(=O)NC3c4cccc(Br)c4CC23)OC1=O (stereo not drawn) [Compound A2]
Germination % at concentration of 0.001 mg l^−1 [4]: 76.9 abc % | Germination % at concentration of 0.01 mg l^−1 [5]: 82 ab % | Germination % at concentration of 0.1 mg l^−1 [6]: 83.2 ab %

CC1=CC(OC=C2C(=O)NC3c4cc(C)ccc4CC23)OC1=O (stereo not drawn) [Compound A3]
Germination % at concentration of 0.001 mg l^−1 [10]: 96.4 ab % | Germination % at concentration of 0.01 mg l^−1 [11]: 98.5 a % | Germination % at concentration of 0.1 mg l^−1 [12]: 98.0 a %

COc1ccc2c(c1)CC1C(=COC3C=C(C)C(=O)O3)C(=O)NC21 (stereo not drawn) [Compound A4]
Germination % at concentration of 0.001 mg l^−1 [10]: 98.9 a % | Germination % at concentration of 0.01 mg l^−1 [11]: 95.8 ab % | Germination % at concentration of 0.1 mg l^−1 [12]: 99.0 a %

CC1=CC(OC=C2C(=O)NC3c4cccc(C)c4CC23)OC1=O (stereo not drawn) [Compound A5]
Germination % at concentration of 0.001 mg l^−1 [1]: 74.5 abc % | Germination % at concentration of 0.01 mg l^−1 [2]: 90 a % | Germination % at concentration of 0.1 mg l^−1 [3]: 85.5 ab %

CC1=CC(OC=C2C(=O)NC3c4c(Br)cccc4CC23)OC1=O (stereo not drawn) [Compound A6]
Germination % at concentration of 0.001 mg l^−1 [1]: 22.3 cde % | Germination % at concentration of 0.01 mg l^−1 [2]: 59.2 abcd % | Germination % at concentration of 0.1 mg l^−1 [3]: 27.8 bcde %

CC1=CC(OC=C2C(=O)NC3c4c(C)cccc4CC23)OC1=O (stereo not drawn) [Compound A8]
Germination % at concentration of 0.001 mg l^−1 [13]: 72.9 bc % | Germination % at concentration of 0.01 mg l^−1 [14]: 84.4 abc % | Germination % at concentration of 0.1 mg l^−1 [15]: 69.9 bc %

CC1=CC(OC=C2C(=O)NC3c4ccc(F)cc4CC23)OC1=O (stereo not drawn) [Compound A9]
Germination % at concentration of 0.001 mg l^−1 [13]: 90.2 ab % | Germination % at concentration of 0.01 mg l^−1 [14]: 85.2 abc % | Germination % at concentration of 0.1 mg l^−1 [15]: 71.5 bc %

CC1=CC(OC=C2C(=O)NC3c4ccc(Cl)cc4CC23)OC1=O (stereo not drawn) [Compound A10]
Germination % at concentration of 0.001 mg l^−1 [1]: 81.3 abc % | Germination % at concentration of 0.01 mg l^−1 [2]: 84.0 ab % | Germination % at concentration of 0.1 mg l^−1 [3]: 85.1 ab %

CC1=CC(OC=C2C(=O)NC3c4cccc(C#N)c4CC23)OC1=O (stereo not drawn) [Compound A11]
Germination % at concentration of 0.001 mg l^−1 [4]: 86.3 ab % | Germination % at concentration of 0.01 mg l^−1 [5]: 88.4 ab % | Germination % at concentration of 0.1 mg l^−1 [6]: 85.5 ab %

CCCc1cccc2c1C1NC(=O)C(=COC3C=C(C)C(=O)O3)C1C2 (stereo not drawn) [Compound A13]
Germination % at concentration of 0.001 mg l^−1 [1]: 14.3 de % | Germination % at concentration of 0.01 mg l^−1 [2]: 64.5 abcd % | Germination % at concentration of 0.1 mg l^−1 [3]: 21.5 cde %

CCCc1cccc2c1CC1C(=COC3C=C(C)C(=O)O3)C(=O)NC21 (stereo not drawn) [Compound A14]
Germination % at concentration of 0.001 mg l^−1 [4]: 85.3 ab % | Germination % at concentration of 0.01 mg l^−1 [5]: 91.5 a % | Germination % at concentration of 0.1 mg l^−1 [6]: 86.2 ab %

CC1=CC(OC=C2C(=O)N(c3ccccc3)C3c4ccccc4CC23)OC1=O (stereo not drawn) [Compound A17]
Germination % at concentration of 0.001 mg l^−1 [10]: 99.2 a % | Germination % at concentration of 0.01 mg l^−1 [11]: 98.9 a % | Germination % at concentration of 0.1 mg l^−1 [12]: 99.4 a %
